Reference: patent US12653776B2, “Methods of treatment of cancer by continuous infusion of coenzyme Q10” (priority 2013, dated 2026)

Experiments:
[1] = tested on: lung chloromas (MIA C51 clone); experiment: Lung chloroma rat model, survival; format: in vivo, rats; details: continuous infusion vs injection 3 times a day, 50 mg/kg per day
Description: The effect of dosing schedule of coenzyme Q10 was also investigated in rats bearing liver or lung chloromas. Rats were transplanted with liver or lung clones of malignant chloromas derived from a stable myelogenous leukemia (chloroleukemia) cell line, MIA C51 (see. e.g., Jimenez and Yunis (1987) Science 238: 1278-1280). The clones have been selected to home to and form tumors in the liver or lungs, respectively. Rats were randomized to receive either no treatment, injection 3 times a day with 40 mg/mL (4%) coenzyme Q10, or continuous infusion of 40 mg/mL (4%) coenzyme Q10 via an implanted pump, to deliver for each regimen a total dose of 50 mg/kg body weight per day. […] For example, at Day 189 in the liver chloroma model, 45 of 50 rats were alive in the continuous infusion treatment group compared with 26 of 50 rats alive in the injection treatment group. All control animals were dead at Day 30.

advanced solid tumors = experiment: First-in-human Phase 1 study (CTL0510), 4-hour IV infusion 3 times weekly: tumor response; format: in vivo
Protocol: The first-in-human Phase 1 study with coenzyme Q10 nanosuspension (40 mg/ml) was conducted in 50 patients with advanced solid tumors. The objectives were to assess the safety, maximum tolerated dose, PK and PD of coenzyme Q10, specifically a 4% coenzyme Q10 nanosuspension formulation (as described in WO 2011/112900, the entire contents of which are expressly incorporated herein by reference), administered as a 4-hour IV infusion 3 times weekly in 28-day cycles. Nine dose levels were explored ranting from 5.62 to 139 mg/kg. Plasma concentration profiles and PK parameters were determined from blood samples collected pre-dose and at intervals to 48 hours post-dose.

solid tumors = experiment: Phase 1a/b study, 96-hour continuous IV infusion: tumor response and PET; format: in vivo, human
Protocol: Assessments of the antitumor activity of coenzyme Q10 is performed at the end of Cycle 2 and every 2 cycles thereafter using standard techniques such as computerized tomography (CT) or magnetic resonance imaging (MRI) for patients with measurable disease. Response is evaluated using Response Evaluation Criteria in Solid Tumors (RECIST) v1.1. Patients who experience no unacceptable toxicity or disease progression, may receive additional 28-day cycles for up to 1 year on Arm 1 or 2. Patients on Arm 1 who progress may elect to continue coenzyme Q10 treatment in combination with gemcitabine, 5-FU, or docetaxel at the treating physician's discretion. Once a dose level of coenzyme Q10 monotherapy is evaluated and the CRC determines it safe to escalate to the next dose level, Cohort 1 of Treatment Arm 2 of coenzyme Q10 in combination with chemotherapy will open to accrual. Cohort 1 of Arm 2 patients are enrolled onto one of 3 chemotherapies, gemcitabine, 5-FU, or docetaxel. Cycle 1 of combination therapy (Arm 2) is 6 weeks in duration for patients with coenzyme Q10 administered twice weekly on Mondays and Wednesday for 6 weeks and chemotherapy administered on Fridays, Days 19, 26 and 33. Cycles 2-12 are 4 weeks in duration with coenzyme Q10 administered twice weekly on Mondays and Wednesdays for 4 weeks and chemotherapy administered on Fridays, Days 5, 12 and 19. Dose limiting toxicities are assessed during Cycle 1. Response is assessed after Cycle 2 (10 weeks) and responders who continue onto Cycles 2-12 are assessed every 2 cycles (8 weeks). […] Patients on Arm 2 who progress on one type of chemotherapy may not switch to one of the other chemotherapy agents in combination with coenzyme Q10. However, if the chemotherapy component (i.e., 5-FU, gemcitabine, or docetaxel) of combination therapy is discontinued due to chemotherapy-related toxicity, patients may continue to receive coenzyme Q10 as monotherapy.
Blood samples for pharmacokinetic and pharmacodynamic analyses are collected during each cycle of monotherapy and combination therapy. Urine samples for determination of coenzyme Q10 renal clearance are collected only during Cycle 1 of monotherapy and combination therapy. A PET scan is performed within 2 weeks prior to starting treatment and after 2 weeks of coenzyme Q10 treatment, and 8 weeks of treatment on Arm 1 or 10 weeks of treatment on Arm 2. Core biopsies (2-3) are performed at the time of baseline and Week 2 PET scan for patients who opt-in to participate in these exploratory studies.

[2] = tested on: LnCaP human prostate adenocarcinoma cells; experiment: Prostate cancer (LnCaP) mouse model, survival; format: in vivo, immunocompromised mice
Protocol: The observed improvement in animal cohorts administered coenzyme Q10 as a continuous infusion was repeated in other animal models of cancer. For example. […] LnCaP human prostate adenocarcinoma cells were injected into immunocompromised mice. Coenzyme Q10 was administered using two different dosing regimens. One cohort was administered a total dose of 75 mg/kg body weight per day by dosing 25 mg/kg body weight every 8 hours (multiple bolus regimen). In a second cohort, an infusion pump was surgically installed in the animals to facilitate continuous infusion of coenzyme Q10 at a total dose of 75 mg/kg body weight per day. Treatment was continued throughout the entire duration of the study.

[3] = tested on: acute erythro-leukemia (K562) cells; experiment: Acute erythroleukemia (K562) mouse model, survival; format: in vivo, mice
Protocol: Human acute erythro-leukemia (K562) and acute myeloid leukemia (KG1) cells (1×10^6) were injected intraperitoneally in immune-compromised mice. Engraftment was confirmed by complete blood counts, presence of anemia, and clinical assessment of animal behavior.
The mice (total n=120 for each model respectively) were randomized into four (n=30/group) treatment groups. Each treatment regimen was administered in a four week cycle with three weeks of treatment, one week off: • 1. Untreated (control) • 2. Coenzyme Q10 (4%, administered at 75 mg/kg, once/day by continuous infusion) • 3. Chemotherapy (cytarabine/AraC 25 mg/kg, 5×/week; and adriamycin/daunorubicin 5 mg/kg; 1×/wk) • 4. Coenzyme Q10 (4%, administered at 75 mg/kg, once/day by continuous infusion)+chemotherapy (cytarabine/AraC 25 mg/kg, 5×/week; and adriamycin/daunorubicin 5 mg/kg; 1×/wk)
All dosings were intravenous and followed a protocol of 3 week treatment followed by 1 week rest. Leukemia was monitored by pallor and blood smears, and hone marrow smears were performed post-mortem for analysis using Wright's stain. Survival results from the study of mice with acute erythroleukemia are show in FIG. 5. Day 1 is the first day of treatment with coenzyme Q10 and/or chemotherapy.

[4] = Patient 1, 66 mg/kg week monotherapy, end of two cycles

coenzyme Q10
effectiveness of continuous infusion regimen [1]: much more effective than the injection regimen | progressive disease (advanced solid tumors; 15 patients): 30% | best response stable disease (advanced solid tumors; 23 of 50 patients): 46% | partial response (advanced solid tumors; patient with a sarcoma): One | patients evaluable for efficacy showing various responses (solid tumors; Eight out of twelve patients, after dose level 2): 75% | multiomics tissue analysis (solid tumors; Patient 1, 66 mg/kg week monotherapy): switch from anaerobic driven markers to oxidative phosphorylation | cervical lymph node metastases (solid tumors; [4]): disappearance of cervical lymph node metastases | size of the target lesion (solid tumors; [4]): minimal changes | decrease on PET-SUV (solid tumors; Patient 1, gastric adenocarcinoma, 66 mg/kg week monotherapy, end of two cycles): 40% | PET/CT response (solid tumors; Patient 1 after switch to combination arm adding weekly docetaxel): again showed metabolic responses by PET/CT | Max SUV, Right iliac bone lesion (solid tumors; Patient 2, gemcitabine + coenzyme Q10 66 mg/kg, Week 10 PET, from 2.3): 1.9 | Max SUV, Omentum lesion 2 (solid tumors; Patient 2, gemcitabine + coenzyme Q10 66 mg/kg, Week 10 PET, from 3.5): 2.8 | non-target lesion response (solid tumors; Patient 2, gemcitabine + coenzyme Q10 66 mg/kg, lesion in the abdomen): complete response in one of the non-target lesions | Max SUV, Omentum lesion 1 (solid tumors; Patient 2, metastatic bladder cancer, gemcitabine + coenzyme Q10 66 mg/kg, Week 10 PET, previous value 1.7): 0.8 | outcomes by RECIST criteria (solid tumors; expected at the end of the ongoing study): clinically relevant outcomes | antitumor activity in a variety of solid tumors (solid tumors; gastric, pancreatic, colon, head and neck, NSCLC, mesothelioma, TN breast cancer): showed early activity at low doses | survival rate ([2]; continuous infusion 75 mg/kg body weight per day vs multiple bolus regimen): even higher survival rate | survival rate ([2]; multiple bolus regimen, total 75 mg/kg body weight per day (25 mg/kg every 8 hours)): higher survival rate than the untreated control | survival ([3]; coenzyme Q10 75 mg/kg/day continuous infusion + chemotherapy (cytarabine + daunorubicin) vs other groups incl. chemotherapy alone, p<0.00001): significant increase in survival | survival ([3]; coenzyme Q10 alone (4%, 75 mg/kg once/day by continuous infusion) vs chemotherapy alone): relatively similar survival compared to chemotherapy alone
